Laboratory results reported in PubChem BioAssay AID1963979 (Molecular Pharmacology Branch, DTP, NCI, 2024).

Test system: 361931-004-R-J1-PDC multicell spheroid viability
Test: Anticancer human tumor 361931-004-R-J1-PDC patient-derived colon adenocarcinoma cell line growth inhibition [PI3K]
Details: for IC50: curve of first compound; for viability, T/C: stronger effect = lower value; active means viability on the fitted dose curve at most 10% of control; inactive means the rest
Excerpt: Combinatorial screen of targeted agents with the PI3K inhibitors inavolisib, alpelisib, duvelisib, and copanlisib in multi-cell type tumor spheroids
A high-throughput screen of multi-cell type tumor spheroids was designed to identify active combinations of targeted small molecules and PI3K pathway inhibitors. Complex spheroids include a stromal component modeled by human endothelial cells (HUVEC) and fibroblasts modeled by human mesenchymal stem cells (MSCs). The concentration ranges selected for each drug and investigational agent were based upon clinically achievable concentrations if the clinical Cmax of the agent was known.
Compounds. The drugs and investigational agents: inavolisib (NSC800729), alpelisib (NSC765974), duvelisib (NSC772469), copanlisib (NSC816437), ipatasertib (NSC767898), afuresertib (NSC778305), talazoparib (NSC767125), sapanisertib (NSC764658), selumetinib (NSC741078), tovorafenib (DAY101, NSC766906), vemurafenib (NSC761431), ravoxertinib (NSC781343), sotorasib (NSC818433), MRTX1133 (NSC 836407), abemaciclib (NSC 768073), palbociclib (NSC758247), venetoclax (NSC 766270), SY5609 (NSC837396), enzalutamide (NSC755605), and darolutamide (NSC825331), were obtained from the National Cancer Institute (NCI) Developmental Therapeutics Program Chemical Repository. The FDA-approved anticancer drug set is available from the NCI Developmental Therapeutics Program. […] The stock solutions were prepared in dimethyl sulfoxide (DMSO, Sigma-Aldrich, St. Louis, MO, cat. D2650) at 800-fold the tested concentration and stored at -70 degrees C prior to their use. All drugs and investigational agents were tested over a range starting from a high concentration at or near the clinical Cmax and decreasing in half-log increments. If the clinical Cmax for an agent had not been determined, the highest concentration tested was 10 microM.
Cell Culture. All cells were maintained in an incubator at 37 degrees C and 5% CO2 with 95% humidity. The PDC lines were cultured according to standard operating procedures established by the NCI PDMR (https://pdmr.cancer.gov/sops/default.htm). All PDCs were thawed and cultured in Matrigel-coated flasks prepared with a working solution of 1X Ham's F-12 nutrient mix, without supplementation (Invitrogen, Waltham, MA, cat. 11765054), 100 U/mL penicillin-streptomycin (Invitrogen, cat. 15140122), and 2.5% Matrigel (Corning Inc., Corning, NY, cat. 354248) for the first three passages. The 354836-022-R-J1-PDC, 475296-252-R-J1-PDC, and 997726-040-R-J2-PDC lines were cultured in 6A media, which includes advanced DMEM/F-12 (Thermo Fisher Scientific, cat. 12634028), 10 mM HEPES (Thermo Fisher Scientific, cat. 15630080), 1X GlutaMAX supplement (Thermo Fisher Scientific, cat. 35050061), 0.1 mg/mL primocin (InvivoGen, San Diego, CA, cat. ant-pm-2), 10% defined fetal bovine serum, heat inactivated (HyClone Laboratories Inc., Logan, UT, cat. SH30070.03HI), 50% L-WRN conditioned media (ATCC, cat. CRL-3276), 1.25 mM N-Acetyl-L-cysteine (Sigma-Aldrich, cat. A9165), 10 mM nicotinamide (Sigma-Aldrich, cat. N0636), 1X B-27 supplement (Thermo Fisher Scientific, cat. 17504044), 1X N-2 supplement (Thermo Fisher Scientific, cat. 17502048), and 10 microM Y-27632 dihydrochloride (Tocris Bioscience, Bristol, United Kingdom, cat. 1254). The 624824-186-R-J2-PDC line was cultured in 6C/Colon 1B media, which includes all 6A media components plus 50 ng/mL human EGF recombinant protein (Thermo Fisher Scientific, cat. PHG0311). […]

[1] = second compound 0.00316 µM, first compound 0.0316 µM
[2] = second compound 0.00316 µM, first compound 0.1 µM
[3] = second compound 0.00316 µM, first compound 0.316 µM
[4] = second compound 0.00316 µM, first compound 1 µM
[5] = second compound 0.00316 µM, first compound 3.16 µM
[6] = second compound 0.00316 µM, first compound 10 µM
[7] = second compound 0.01 µM, first compound 0.0316 µM
[8] = second compound 0.01 µM, first compound 0.1 µM
[9] = second compound 0.01 µM, first compound 0.316 µM
[10] = second compound 0.01 µM, first compound 1 µM
[11] = second compound 0.01 µM, first compound 3.16 µM
[12] = second compound 0.01 µM, first compound 10 µM
[13] = second compound 0.0316 µM, first compound 0.0316 µM
[14] = second compound 0.0316 µM, first compound 0.1 µM
[15] = second compound 0.0316 µM, first compound 0.316 µM
[16] = second compound 0.0316 µM, first compound 1 µM
[17] = second compound 0.0316 µM, first compound 3.16 µM
[18] = second compound 0.0316 µM, first compound 10 µM
[19] = second compound 0.1 µM, first compound 0.0316 µM
[20] = second compound 0.1 µM, first compound 0.1 µM
[21] = second compound 0.1 µM, first compound 0.316 µM
[22] = second compound 0.1 µM, first compound 1 µM
[23] = second compound 0.1 µM, first compound 3.16 µM
[24] = second compound 0.1 µM, first compound 10 µM
[25] = second compound 0.316 µM, first compound 0.0316 µM
[26] = second compound 0.316 µM, first compound 0.1 µM
[27] = second compound 0.316 µM, first compound 0.316 µM
[28] = second compound 0.316 µM, first compound 1 µM
[29] = second compound 0.316 µM, first compound 3.16 µM
[30] = second compound 0.316 µM, first compound 10 µM
[31] = second compound 1 µM, first compound 0.0316 µM
[32] = second compound 1 µM, first compound 0.1 µM
[33] = second compound 1 µM, first compound 0.316 µM
[34] = second compound 1 µM, first compound 1 µM
[35] = second compound 1 µM, first compound 3.16 µM
[36] = second compound 1 µM, first compound 10 µM
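Further: spheroids exposed to agents for seven days before readout.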

C=CC(=O)N1CCN(c2nc(=O)n(-c3c(C)ccnc3C(C)C)c3nc(-c4c(O)cccc4F)c(F)cc23)C(C)C1 (centres undefined) + CC(Nc1ccc2c(c1)OCCn1cc(N3C(=O)OCC3C(F)F)nc1-2)C(N)=O
> 10 µM: IC50 (second compound 0.00316 µM) | IC50 (second compound 0.01 µM) | IC50 (second compound 0.0316 µM) | IC50 (second compound 0.1 µM) | IC50 (second compound 0.316 µM) | IC50 (second compound 1 µM)
inactive: viability, T/C [1] 99.7% | viability, T/C [2] 103% | viability, T/C [3] 101% | viability, T/C [4] 92.7% | viability, T/C [5] 99.8% | viability, T/C [6] 81.2% | viability, T/C [7] 107% | viability, T/C [8] 100% | viability, T/C [9] 99.5% | viability, T/C [10] 99.5% | viability, T/C [11] 106% | viability, T/C [12] 89.8% | viability, T/C [13] 104% | viability, T/C [14] 103% | viability, T/C [15] 99.2% | viability, T/C [16] 97.5% | viability, T/C [17] 97% | viability, T/C [18] 76.2% | viability, T/C [19] 97.4% | viability, T/C [20] 91.6% | viability, T/C [21] 96.9% | viability, T/C [22] 101% | viability, T/C [23] 93.5% | viability, T/C [24] 72.2% | viability, T/C [25] 88.7% | viability, T/C [26] 84.7% | viability, T/C [27] 81.6% | viability, T/C [28] 89.4% | viability, T/C [29] 86% | viability, T/C [30] 66% | viability, T/C [31] 75.5% | viability, T/C [32] 78.2% | viability, T/C [33] 80% | viability, T/C [34] 80.1% | viability, T/C [35] 86.7% | viability, T/C [36] 59.4%

CC(Cn1ccc(-c2ccc(C#N)c(Cl)c2)n1)NC(=O)c1cc(C(C)O)[nH]n1 (centres undefined) + CC(Nc1ccc2c(c1)OCCn1cc(N3C(=O)OCC3C(F)F)nc1-2)C(N)=O
inactive: viability, T/C [1] 103% | viability, T/C [2] 106% | viability, T/C [3] 109% | viability, T/C [4] 110% | viability, T/C [5] 92.2% | viability, T/C [6] 102% | viability, T/C [7] 98.3% | viability, T/C [8] 113% | viability, T/C [9] 102% | viability, T/C [10] 93.7% | viability, T/C [11] 110% | viability, T/C [12] 98.6% | viability, T/C [13] 102% | viability, T/C [14] 103% | viability, T/C [15] 105% | viability, T/C [16] 111% | viability, T/C [17] 104% | viability, T/C [18] 90.3% | viability, T/C [19] 96% | viability, T/C [20] 99.2% | viability, T/C [21] 93.5% | viability, T/C [22] 97.5% | viability, T/C [23] 79.3% | viability, T/C [24] 72% | viability, T/C [25] 97.8% | viability, T/C [26] 92.1% | viability, T/C [27] 98.8% | viability, T/C [28] 93.9% | viability, T/C [29] 86.1% | viability, T/C [30] 86.8% | viability, T/C [31] 82.2% | viability, T/C [32] 75.9% | viability, T/C [33] 80.2% | viability, T/C [34] 85.8% | viability, T/C [35] 70.6% | viability, T/C [36] 57.5%
> 10 µM: IC50 (second compound 0.00316 µM) | IC50 (second compound 0.01 µM) | IC50 (second compound 0.0316 µM) | IC50 (second compound 0.1 µM) | IC50 (second compound 0.316 µM) | IC50 (second compound 1 µM)
